The values below come from patent publication US20050197350A1, “Novel quinoline, tetrahydroquinazoline, and pyrimidine derivatives and methods of treatment related to the use thereof” (TAISHO PHARMACEUTICAL CO., LTD., priority 2003, published 2005).

For the first test, the system named is MCH receptors. The experiment in a line: MCH receptor activity class (method not given).
Conditions: not given
As for `Cc1cc(N[C@H]2CC[C@@H](NC(=O)c3ccc(Br)o3)CC2)nc2ccccc12` [Example 2557, 5-bromo-N-{cis-4-[(4-methylquinolin-2-yl)amino]cyclohexyl}-2-furamide], the class was determined as 1.

For the molecule `Cc1ccc(C(=O)N[C@H]2CC[C@@H](Nc3cc(C)c4ccccc4n3)CC2)cc1` [Example 2544, 4-methyl-N-{cis-4-[(4-methylquinolin-2-yl)amino]cyclohexyl}benzamide], the class worked out at 1.

The test is the same for the next values; noted with them: MCH receptor activity class 1-3 (percent of control at 10^-7 M or IC50).
Take `CN(C)c1ccnc(N[C@H]2CC[C@@H](NC(=S)Nc3c(F)cc(Br)cc3Br)CC2)n1` [compound 2345]: the class was 2 (Class 2: The value of percent of control at 10^−7 M was from 40% to 60% or the value of IC′50 was from 50 nM to 200 nM.).

Still in this test, the particulars now being: MCH receptor; class by percent of control at 10^-7 M or IC50.
As to `CN(C)c1cc(N[C@H]2CC[C@@H](NC(=O)COc3ccc(Cl)cc3)CC2)nc2ccccc12` [compound 96], the class is listed as 1 (Class 1: The value of percent of control at 10^−7 M was less than 40% or the value of IC50 was less than 50 nM.).

For the molecule `CN(C)c1nc(N[C@H]2CC[C@@H](NC(=S)NCC(c3ccccc3)c3ccccc3)CC2)nc2c1CCCC2` [compound 2030], the class is 2 (Class 2: The value of percent of control at 10^−7 M was from 40% to 60% or the value of IC′50 was from 50 nM to 200 nM.).

As to `CN(C)c1cc(N[C@H]2CC[C@@H](CNC(=O)c3cccs3)CC2)nc2ccccc12` [compound 179], the class was 3 (Class 3 The value of percent of control at 10^−7 M was more than 60% or the value of IC50 was more than 200 nM.).

For `CN(C)c1nc(N[C@H]2CC[C@@H](NC(=S)Nc3cc(Cl)c(Cl)cc3Cl)CC2)nc2c1CCCC2` [compound 2000], the class is 3 (Class 3 The value of percent of control at 10^−7 M was more than 60% or the value of IC50 was more than 200 nM.).

The test is the same for the next values; noted with them: activity class per percent of control at 10^-7 M or IC50.
With `CN(C)c1cc(N[C@H]2CC[C@@H](CNCc3c[nH]nc3-c3ccc(C(F)(F)F)cc3)CC2)nc2ccccc12` [compound 1135], the class is 3 (Class 3 The value of percent of control at 10^−7 M was more than 60% or the value of IC50 was more than 200 nM.).

For the molecule `COc1ccc(CNC[C@H]2CC[C@@H](Nc3cc(N(C)C)c4ccccc4n3)CC2)c(OC)c1OC` [compound 1132], the class is reported as 3 (Class 3 The value of percent of control at 10^−7 M was more than 60% or the value of IC50 was more than 200 nM.).

On to `Cc1ccc(C(=O)CC(SCc2ccc(Cl)cc2)C(=O)N[C@H]2CC[C@@H](Nc3nc4c(c(N(C)C)n3)CCCC4)CC2)cc1` (relative stereo) [compound 1018], for which the class is reported as 2 (Class 2: The value of percent of control at 10^−7 M was from 40% to 60% or the value of IC′50 was from 50 nM to 200 nM.).

In the case of `Cc1ccc(S(=O)(=O)n2ccc(C(=O)N[C@H]3CC[C@@H](Nc4nc5c(c(N(C)C)n4)CCCC5)CC3)c2)cc1` [compound 1038], the class is recorded as 3 (Class 3 The value of percent of control at 10^−7 M was more than 60% or the value of IC50 was more than 200 nM.).

With `CN(C)c1nc(N[C@H]2CC[C@@H](NC(=O)CCC(=O)c3cccs3)CC2)nc2c1CCCC2` [compound 1021], the class is 3 (Class 3 The value of percent of control at 10^−7 M was more than 60% or the value of IC50 was more than 200 nM.).

The test is the same for the next values; noted with them: class by percent of control at 10^-7 M or IC50.
For `CN(C)c1ccnc(N[C@H]2CC[C@@H](NC(=O)c3ccc(F)c(C(F)(F)F)c3)CC2)n1` [compound 324, N-(cis-4-{[4-(dimethylamino)pyrimidin-2-yl]amino}cyclohexyl)-4-fluoro-3-(trifluoromethyl)benzamide], the class is given as 1 (Class 1: The value of percent of control at 10^−7 M was less than 40% or the value of IC50 was less than 50 nM.).

`COc1cc(CNC[C@H]2CC[C@@H](Nc3nccc(N(C)C)n3)CC2)cc(I)c1O` [compound 1260]: the class is 1 (Class 1: The value of percent of control at 10^−7 M was less than 40% or the value of IC50 was less than 50 nM.).

Consider `CN(C)c1cc(N[C@H]2CC[C@@H](NC(=O)c3ccccc3Cc3ccccc3)CC2)nc2ccccc12` [compound 685], for which the class is on record as 3 (Class 3 The value of percent of control at 10^−7 M was more than 60% or the value of IC50 was more than 200 nM.).

Regarding `CCCc1c(CNC[C@H]2CC[C@@H](Nc3cc(N(C)C)c4ccccc4n3)CC2)cnn1-c1ccccc1` [compound 1478], the class is 1 (Class 1: The value of percent of control at 10^−7 M was less than 40% or the value of IC50 was less than 50 nM.).

With `Cc1ccc(CNC[C@H]2CC[C@@H](Nc3cc(N(C)C)c4ccccc4n3)CC2)s1` [compound 1180], the class was 3 (Class 3 The value of percent of control at 10^−7 M was more than 60% or the value of IC50 was more than 200 nM.).

Turning to `Cc1onc(-c2ccccc2)c1NC(=O)N[C@H]1CC[C@@H](Nc2nccc(N(C)C)n2)CC1` [compound 2256], the class is reported as 3 (Class 3 The value of percent of control at 10^−7 M was more than 60% or the value of IC50 was more than 200 nM.).

In the case of `CC(C)c1cc(Br)c(NC(=O)N[C@H]2CC[C@@H](Nc3nccc(N(C)C)n3)CC2)c(Br)c1` [compound 2252], the class is 2 (Class 2: The value of percent of control at 10^−7 M was from 40% to 60% or the value of IC′50 was from 50 nM to 200 nM.).

Consider `CN(C)c1ccnc(N[C@H]2CC[C@@H](NC(=O)c3cnc4ccccc4n3)CC2)n1` [compound 332], for which the class is on record as 1 (Class 1: The value of percent of control at 10^−7 M was less than 40% or the value of IC50 was less than 50 nM.).

For `CSc1sc(C(=O)N[C@H]2CC[C@@H](Nc3nccc(N(C)C)n3)CC2)c(I)c1S(=O)(=O)C(C)C` [compound 905], the class was 2 (Class 2: The value of percent of control at 10^−7 M was from 40% to 60% or the value of IC′50 was from 50 nM to 200 nM.).

Consider `CN(C)c1ccnc(N[C@H]2CC[C@@H](NC(=O)COc3ccccc3[N+](=O)[O-])CC2)n1` [compound 331], for which the class is 3 (Class 3 The value of percent of control at 10^−7 M was more than 60% or the value of IC50 was more than 200 nM.).

Consider `CN(C)c1ccnc(N[C@H]2CC[C@@H](CNCc3ccc(N(C)C)c4ccccc34)CC2)n1` [compound 1281], for which the class is listed as 2 (Class 2: The value of percent of control at 10^−7 M was from 40% to 60% or the value of IC′50 was from 50 nM to 200 nM.).

`CC1=C(CC(=O)N[C@H]2CC[C@@H](Nc3nccc(N(C)C)n3)CC2)c2cc(F)ccc2/C1=C/c1ccc([S+](C)[O-])cc1` (relative stereo) [compound 883, N-(cis-4-{[4-(dimethylamino)pyrimidin-2-yl]amino}cyclohexyl)-2-{(1E)-5-fluoro-2-methyl-1-[4-(methylsulfinyl)benzylidene]-1H-inden-3-yl}acetamide]: the class is reported as 2 (Class 2: The value of percent of control at 10^−7 M was from 40% to 60% or the value of IC′50 was from 50 nM to 200 nM.).

As for `Cc1cc(C)c(C(=O)NC[C@H]2CC[C@@H](Nc3cc(N(C)C)c4ccccc4n3)CC2)c(C)c1` [compound 231, N-[(cis-4-{[4-(dimethylamino)quinolin-2-yl]amino}cyclohexyl)methyl]-2,4,6-trimethylbenzamide], the class was 1 (Class 1: The value of percent of control at 10^−7 M was less than 40% or the value of IC50 was less than 50 nM.).

As for `CN(C)c1ccnc(N[C@H]2CC[C@@H](NC(=O)c3cn(Cc4ccccc4)c4ccccc34)CC2)n1` [compound 830, 1-benzyl-N-(cis-4-{[4-(dimethylamino)pyrimidin-2-yl]amino}cyclohexyl)-1H-indole-3-carboxamide], the class is given as 2 (Class 2: The value of percent of control at 10^−7 M was from 40% to 60% or the value of IC′50 was from 50 nM to 200 nM.).

The same test, now with this note: class by percent of control at 10^−7 M or IC50.
Turning to `Cc1nc(N[C@H]2CC[C@@H](NC(=O)Nc3ccc(OCc4ccccc4)cc3)CC2)nc(N(C)C)c1C` [compound 2869], the class is on record as 3 (Class 3 The value of percent of control at 10^−7 M was more than 60% or the value of IC50 was more than 200 nM.).

For the molecule `Cc1cccc(N(C)CC(=O)N[C@H]2CC[C@@H](Nc3ncc(C)c(N(C)C)n3)CC2)c1` [compound 2942], the class is recorded as 1 (Class 1: The value of percent of control at 10^−7 M was less than 40% or the value of IC50 was less than 50 nM.).

For the molecule `CCOc1ccccc1NC(=O)N[C@H]1CC[C@@H](Nc2nc(C)c(C)c(N(C)C)n2)CC1` [compound 2868], the class was 1 (Class 1: The value of percent of control at 10^−7 M was less than 40% or the value of IC50 was less than 50 nM.).

Take `COc1cccc(Oc2ncccc2C(=O)N[C@H]2CC[C@@H](Nc3ncc(C)c(N(C)C)n3)CC2)c1` [compound 2887, N-(cis-4-{[4-(dimethylamino)-5-methylpyrimidin-2-yl]amino}cyclohexyl)-2-(3-methoxyphenoxy)nicotinamide]: the class is listed as 1 (Class 1: The value of percent of control at 10^−7 M was less than 40% or the value of IC50 was less than 50 nM.).

As to `Cc1ccc(C(=O)NC[C@H]2CC[C@@H](Nc3ncc(C)c(N(C)C)n3)CC2)cc1` [compound 2691], the class was 3 (Class 3 The value of percent of control at 10^−7 M was more than 60% or the value of IC50 was more than 200 nM.).

Turning to `Cc1cnc(N[C@H]2CC[C@@H](NC(=O)c3cccc(Br)c3)CC2)nc1N(C)C` [compound 2898, 3-bromo-N-(cis-4-{[4-(dimethylamino)-5-methylpyrimidin-2-yl]amino}cyclohexyl)benzamide], the class is on record as 1 (Class 1: The value of percent of control at 10^−7 M was less than 40% or the value of IC50 was less than 50 nM.).

As to `Cc1cc(N(C)C)nc(N[C@H]2CC[C@@H](CNC(=O)c3ccc(F)c(F)c3)CC2)n1` [compound 2753, N-[(cis-4-{[4-(dimethylamino)-6-methylpyrimidin-2-yl]amino}cyclohexyl)methyl]-3,4-difluorobenzamide], the class is given as 3 (Class 3 The value of percent of control at 10^−7 M was more than 60% or the value of IC50 was more than 200 nM.).

With `Cc1cc(N(C)C)nc(N[C@H]2CC[C@@H](C(=O)NCc3ccc(Cl)c(Cl)c3)CC2)n1` [compound 2817, cis-N-(3,4-dichlorobenzyl)-4-{[4-(dimethylamino)-6-methylpyrimidin-2-yl]amino}cyclohexanecarboxamide], the class is 1 (Class 1: The value of percent of control at 10^−7 M was less than 40% or the value of IC50 was less than 50 nM.).
